Series [1] has as its system Triticum aestivum. In words: Phytotoxicity in Triticum aestivum (wheat) assessed as inhibition of seed germination at 250 ug/mL measured on day 14 relative to untreated control. Format: organism-based. To be noted: in vivo.
The subject of series [2] is Linaria genistifolia subsp. dalmatica. Nature of the series: Phytotoxicity in Linaria genistifolia subsp. dalmatica assessed as inhibition of seed germination at 250 ug/mL measured on day 14 relative to untreated control. Format: functional, organism-based.
Series [3] deals with Centaurea diffusa. In words: Phytotoxicity in Centaurea diffusa assessed as inhibition of seed germination at 250 ug/mL measured on day 14 relative to untreated control. The format is functional, organism-based.
In series [4] the test system is Bassia scoparia. In words: Phytotoxicity in Bassia scoparia assessed as inhibition of seed germination at 250 ug/mL measured on day 14 relative to untreated control. Format: functional, organism-based.
The subject of series [5] is Centaurea maculosa. Nature of the series: Phytotoxicity in Centaurea maculosa assessed as inhibition of seed germination at 250 ug/mL measured on day 14 relative to untreated control. Format: functional, organism-based.
For series [6], the system named is Bassia scoparia. Nature of the series: Phytotoxicity in Bassia scoparia assessed as increase in mortality at 250 ug/mL measured on day 14 relative to untreated control. The format is functional, organism-based.
In series [7] the test system is Linaria genistifolia subsp. dalmatica. Nature of the series: Phytotoxicity in Linaria genistifolia subsp. dalmatica assessed as increase in mortality at 250 ug/mL measured on day 14 relative to untreated control. Format: functional, organism-based.
Series [8] concerns Centaurea diffusa. Nature of the series: Phytotoxicity in Centaurea diffusa assessed as increase in mortality at 250 ug/mL measured on day 14 relative to untreated control. The format is functional, organism-based.
For series [9], the system named is Centaurea maculosa. In words: Phytotoxicity in Centaurea maculosa assessed as increase in mortality at 250 ug/mL measured on day 14 relative to untreated control. Format: functional, organism-based.
The subject of series [10] is Solanum lycopersicum. Nature of the series: Phytotoxicity in Solanum lycopersicum (tomato) assessed as increase in mortality at 250 ug/mL measured on day 14 relative to untreated control. The format is organism-based. To be noted: in vivo.
The subject of series [11] is Triticum aestivum. In words: Phytotoxicity in Triticum aestivum (wheat) assessed as increase in mortality at 250 ug/mL measured on day 14 relative to untreated control. Format: functional, organism-based.
Another series concerns Arabidopsis thaliana. Nature of the series: Phytotoxicity in Arabidopsis thaliana assessed as increase in mortality at 250 ug/mL measured on day 14 relative to untreated control. To be noted: in vivo. The format is organism-based.
The subject of series [12] is Bassia scoparia. Nature of the series: Phytotoxicity in Bassia scoparia assessed as inhibition of shoot differentiation at 250 ug/mL measured on day 14 relative to untreated control. The format is functional, organism-based.
In series [13] the test system is Linaria genistifolia subsp. dalmatica. In words: Phytotoxicity in Linaria genistifolia subsp. dalmatica assessed as inhibition of shoot differentiation at 250 ug/mL measured on day 14 relative to untreated control. The format is functional, organism-based.
For series [14] the test system is unchanged. Nature of the series: Phytotoxicity in Linaria genistifolia subsp. dalmatica assessed as inhibition of root differentiation at 250 ug/mL measured on day 14 relative to untreated control. Format: functional, organism-based.
The test system of series [15] is Centaurea diffusa. In words: Phytotoxicity in Centaurea diffusa assessed as inhibition of root differentiation at 250 ug/mL measured on day 14 relative to untreated control. The format is functional, organism-based.
For series [16], the system named is Centaurea diffusa. In words: Phytotoxicity in Centaurea diffusa assessed as inhibition of shoot differentiation at 250 ug/mL measured on day 14 relative to untreated control. The format is functional, organism-based.
Series [17] deals with Bassia scoparia. Nature of the series: Phytotoxicity in Bassia scoparia assessed as inhibition of root differentiation at 250 ug/mL measured on day 14 relative to untreated control. Format: functional, organism-based.
Series [18] deals with Centaurea maculosa. In words: Phytotoxicity in Centaurea maculosa assessed as inhibition of root differentiation at 250 ug/mL measured on day 14 relative to untreated control. The format is functional, organism-based.
For series [19], the system named is Centaurea maculosa. In words: Phytotoxicity in Centaurea maculosa assessed as inhibition of shoot differentiation at 250 ug/mL measured on day 14 relative to untreated control. The format is functional, organism-based.
Series [20] relates to Linaria genistifolia subsp. dalmatica. Nature of the series: Phytotoxicity in Linaria genistifolia subsp. dalmatica assessed as inhibition of seed germination at 50 ug/mL measured on day 14 relative to untreated control. Format: functional, organism-based.
Series [21] has as its system Centaurea maculosa. In words: Phytotoxicity in Centaurea maculosa assessed as inhibition of seed germination at 50 ug/mL measured on day 14 relative to untreated control. The format is functional, organism-based.
Series [22] relates to Bassia scoparia. In words: Phytotoxicity in Bassia scoparia assessed as inhibition of seed germination at 50 ug/mL measured on day 14 relative to untreated control. Format: functional, organism-based.
The test system of series [23] is Centaurea diffusa. In words: Phytotoxicity in Centaurea diffusa assessed as inhibition of seed germination at 50 ug/mL measured on day 14 relative to untreated control. Format: functional, organism-based.
In series [24] the test system is Triticum aestivum. Nature of the series: Phytotoxicity in Triticum aestivum (wheat) assessed as increase in mortality at 50 ug/mL measured on day 14 relative to untreated control. Format: functional, organism-based.
Series [25] relates to Solanum lycopersicum. In words: Phytotoxicity in Solanum lycopersicum (tomato) assessed as increase in mortality at 50 ug/mL measured on day 14 relative to untreated control. To be noted: in vivo. Format: organism-based.
The test system of series [26] is Linaria genistifolia subsp. dalmatica. Nature of the series: Phytotoxicity in Linaria genistifolia subsp. dalmatica assessed as increase in mortality at 50 ug/mL measured on day 14 relative to untreated control. Format: functional, organism-based.
The test system of series [27] is Bassia scoparia. In words: Phytotoxicity in Bassia scoparia assessed as increase in mortality at 50 ug/mL measured on day 14 relative to untreated control. The format is functional, organism-based.
The test system of series [28] is Centaurea diffusa. In words: Phytotoxicity in Centaurea diffusa assessed as increase in mortality at 50 ug/mL measured on day 14 relative to untreated control. The format is functional, organism-based.
In series [29] the test system is Centaurea maculosa. Nature of the series: Phytotoxicity in Centaurea maculosa assessed as increase in mortality at 50 ug/mL measured on day 14 relative to untreated control. The format is functional, organism-based.
For series [30], the system named is Triticum aestivum. Nature of the series: Phytotoxicity in Triticum aestivum (wheat) assessed as inhibition of seed germination at 50 ug/mL measured on day 14 relative to untreated control. Format: functional, organism-based.

Activity calls are given as the source filed them. No cut-off for these calls is given here.

For `O=C1c2c(O)cc(O)cc2OC(c2ccc(O)c(O)c2)C1O` (racemic) [TAXIFOLIN], the “inhibition (INH)” value with Triticum aestivum [1], in the series with Solanum lycopersicum [10] and in the series on Arabidopsis thaliana was “Toxic” throughout. Moreover, the inhibition result (in series [2]; in the series with Centaurea diffusa [3]; in the series on Bassia scoparia [4]; in the series on Bassia scoparia [6]; in series [7]; with Centaurea diffusa [8]) was “Active” in each case. Besides, the inhibition result in the series on Triticum aestivum [11] is “Active”. In addition, the inhibition entry in the series on Centaurea maculosa [5] and with Centaurea maculosa [9] was “inactive” each time.

On to `Oc1cc(O)c2c(c1)O[C@@H](c1ccc(O)c(O)c1)[C@@H](O)C2` [(+)-EPICATECHIN], for which, in the series with Triticum aestivum [1], the “inhibition (INH)” value is listed as “Toxic”. Moreover, the inhibition result (with Bassia scoparia [12]; in series [2]; in [13]; in series [14]; in the series with Centaurea diffusa [3]; in the series on Centaurea diffusa [15]) was “Active” in each case. For the same compound, the inhibition result in the series with Centaurea diffusa [16], in the series with Bassia scoparia [17], with Bassia scoparia [4], in the series with Centaurea maculosa [5], in the series on Centaurea maculosa [18] and with Centaurea maculosa [19] was “Active” throughout.

Turning to `Oc1cc(O)c2c(c1)O[C@@H](c1ccc(O)c(O)c1)[C@H](O)C2` [(-)-CATECHIN], the inhibition result (in series [20]; with Bassia scoparia [22]; in the series with Centaurea diffusa [23]; with Triticum aestivum [24]; in series [26]; in the series on Bassia scoparia [27]) was “Active” each time. Moreover, the inhibition entry with Centaurea diffusa [28] and in the series on Triticum aestivum [30] was “Active” in each case. Besides, the inhibition result in the series with Centaurea maculosa [21] and in the series with Centaurea maculosa [29] was “inactive” each time. Moreover, the “inhibition (INH)” value in the series on Solanum lycopersicum [25] is recorded as “Toxic”.

Consider `Oc1cc(O)c2c(c1)O[C@H](c1ccc(O)c(O)c1)[C@H](O)C2` [(-)-EPICATECHIN], for which, in the series with Triticum aestivum [1], the “inhibition (INH)” value is recorded as “Non-toxic”. The inhibition entry (in the series with Bassia scoparia [12]; in series [2]; in series [13]; in [14]; with Centaurea diffusa [3]; with Centaurea diffusa [15]) was “inactive” each time. In addition, the inhibition entry in the series with Centaurea diffusa [16], in the series on Bassia scoparia [17], in the series on Bassia scoparia [4], in the series on Centaurea maculosa [5], in the series with Centaurea maculosa [18] and with Centaurea maculosa [19] was “inactive” throughout.

On to `O=c1c(O)c(-c2ccc(O)cc2)oc2cc(O)cc(O)c12` [KAEMPFEROL], for which the “inhibition (INH)” value with Triticum aestivum [1], with Solanum lycopersicum [10] and with Arabidopsis thaliana was “Toxic” each time. Also, the inhibition entry (in [2]; in the series with Centaurea diffusa [3]; in the series with Bassia scoparia [4]; in the series on Bassia scoparia [6]; in series [7]; in the series on Centaurea diffusa [8]) was “Active” throughout. The inhibition entry in the series on Triticum aestivum [11] is “Active”. Further, the inhibition entry in the series on Centaurea maculosa [5] and with Centaurea maculosa [9] was “inactive” throughout.

Take `O=C1C[C@@H](c2ccc(O)cc2)Oc2cc(O)cc(O)c21` [NARINGENIN]: the “inhibition (INH)” value in the series with Triticum aestivum [1] is reported as “Non-toxic”. Moreover, the inhibition entry (in the series on Bassia scoparia [12]; in series [2]; in [13]; in [14]; in the series with Centaurea diffusa [3]; with Centaurea diffusa [15]) was “inactive” in each case. Further, the inhibition result in the series with Centaurea diffusa [16], in the series with Bassia scoparia [17], in the series on Bassia scoparia [4], in the series on Centaurea maculosa [5], in the series with Centaurea maculosa [18] and in the series with Centaurea maculosa [19] was “inactive” throughout.

On to `O=c1c(O)c(-c2ccc(O)c(O)c2)oc2cc(O)cc(O)c12` [QUERCETIN], for which the “inhibition (INH)” value in the series on Triticum aestivum [1] is given as “Non-toxic”. For the same compound, the inhibition result (in the series with Bassia scoparia [12]; in [2]; in series [13]; in series [14]; with Centaurea diffusa [3]; with Centaurea diffusa [15]) was “inactive” in each case. The inhibition result in the series with Centaurea diffusa [16], in the series on Bassia scoparia [17], with Bassia scoparia [4], with Centaurea maculosa [5], in the series on Centaurea maculosa [18] and in the series with Centaurea maculosa [19] was “inactive” in each case.

For the origin of these results see ChEMBL document CHEMBL3046015, “Structure-dependent phytotoxicity of catechins and other flavonoids: flavonoid conversions by cell-free protein extracts of Centaurea maculosa (spotted knapweed) roots” (J Agric Food Chem, 2003).
